This assay has as its system Swiss mice, Sarcoma 180 sc, mean tumor weight T/C. The experiment in a line: NCI In Vivo Anticancer Drug Screen. Data for tumor model Sarcoma 180 (subcutaneous) in Swiss mice. The note with it: endpoint: mean tumor weight, higher = larger tumour. The protocol:
The antitumor activity of compounds was measured in mice bearing transplantable tumors. Survival or tumor size were measured and the results are expressed as the measurement made in the treated group (T) divided by the measurement made in the vehicle treated control group (C). The tumor model used in this assay is Sarcoma 180 (subcutaneous) in Swiss mice

Among the data in PubChem BioAssay AID342 (DTP/NCI, 2004) are T/C values, retold here.

Values joined by “and” are separate entries in the source; they are usually repeats but may differ in a detail not shown here. Identical values can stand only once.

As to `CC1CCOS(=O)O1` (configuration not stated), the T/C is, setting by setting: (dose: 6.25 mg/kg/injection, schedule: Q01DX007 (ip), vehicle: olive oil, sesame oil, peanut oil) 67 % of control; (dose: 6.25 mg/kg/injection, schedule: Q01DX007 (ip), vehicle: propolene glycol) 62 % of control; (dose: 6.25 mg/kg/injection, schedule: Q01DX007 (oral), vehicle: olive oil, sesame oil, peanut oil) 81 % of control; (dose: 6.25 mg/kg/injection, schedule: Q01DX007 (sc), vehicle: olive oil, sesame oil, peanut oil) 81 % of control; (dose: 12.5 mg/kg/injection, schedule: Q01DX007 (ip), vehicle: olive oil, sesame oil, peanut oil) 85 % of control; (dose: 12.5 mg/kg/injection, schedule: Q01DX007 (ip), vehicle: propolene glycol) 55 % of control. Moreover, the T/C was 106 % of control (dose: 12.5 mg/kg/injection, schedule: Q01DX007 (oral), vehicle: olive oil, sesame oil, peanut oil); 74 % of control (dose: 12.5 mg/kg/injection, schedule: Q01DX007 (oral), vehicle: propolene glycol); 97 % of control (dose: 12.5 mg/kg/injection, schedule: Q01DX007 (sc), vehicle: olive oil, sesame oil, peanut oil); 75 % of control (dose: 25.0 mg/kg/injection, schedule: Q01DX007 (ip), vehicle: olive oil, sesame oil, peanut oil); 62 % of control (dose: 25.0 mg/kg/injection, schedule: Q01DX007 (ip), vehicle: propolene glycol); 79 % of control (dose: 25.0 mg/kg/injection, schedule: Q01DX007 (oral), vehicle: olive oil, sesame oil, peanut oil). In addition, the T/C was 80 % of control (dose: 25.0 mg/kg/injection, schedule: Q01DX007 (oral), vehicle: propolene glycol); 65 % of control (dose: 25.0 mg/kg/injection, schedule: Q01DX007 (sc), vehicle: olive oil, sesame oil, peanut oil); 102 % of control (dose: 36.0 mg/kg/injection, schedule: Q01DX007 (ip), vehicle: carboxymethylcellulose (CMC)); 48 % of control (dose: 50.0 mg/kg/injection, schedule: Q01DX007 (ip), vehicle: olive oil, sesame oil, peanut oil); 56 % of control (dose: 50.0 mg/kg/injection, schedule: Q01DX007 (ip), vehicle: propolene glycol); 71 % of control (dose: 50.0 mg/kg/injection, schedule: Q01DX007 (oral), vehicle: olive oil, sesame oil, peanut oil). The T/C by setting is: (dose: 50.0 mg/kg/injection, schedule: Q01DX007 (oral), vehicle: propolene glycol) 81 % of control; (dose: 50.0 mg/kg/injection, schedule: Q01DX007 (sc), vehicle: olive oil, sesame oil, peanut oil) 66 % of control; (dose: 54.0 mg/kg/injection, schedule: Q01DX007 (ip), vehicle: carboxymethylcellulose (CMC)) 84 % of control; (dose: 81.0 mg/kg/injection, schedule: Q01DX007 (ip), vehicle: carboxymethylcellulose (CMC)) 57 % of control.
With `NC(=O)c1cn(C2OC(CO)C(O)C2O)c2ncnc(N)c12` (configuration not stated), the T/C (dose: 0.5 mg/kg/injection, schedule: Q01DX007 (ip), vehicle: carboxymethylcellulose (CMC)) is 87 % of control.
As to `CNNCc1ccc(C(=O)NC(C)C)cc1`, the T/C by setting is: (dose: 100.0 mg/kg/injection, schedule: Q01DX007 (ip), vehicle: saline) 26 % of control; (dose: 125.0 mg/kg/injection, schedule: Q01DX007 (ip), vehicle: carboxymethylcellulose (CMC)) 36 % of control; (dose: 148.0 mg/kg/injection, schedule: Q01DX007 (ip), vehicle: saline) 22 % of control; (dose: 222.0 mg/kg/injection, schedule: Q01DX007 (ip), vehicle: saline) 16 % of control; (dose: 250.0 mg/kg/injection, schedule: Q01DX007 (ip), vehicle: carboxymethylcellulose (CMC)) 15 % of control; (dose: 333.0 mg/kg/injection, schedule: Q01DX007 (ip), vehicle: saline) 16 % of control. Also, where the note is “dose: 500.0 mg/kg/injection, schedule: Q01DX007 (ip), vehicle: saline”, the T/C was 8 % of control.
For the compound `NNC(=O)c1nsnc1N`, the T/C (dose: 75.0 mg/kg/injection, schedule: Q01DX007 (ip), vehicle: carboxymethylcellulose (CMC)) was 97 % of control.
With `COc1cc2c(c(OC3OC(CO)C(O)C(O)C3O)c1)C(=O)CC(c1ccc(O)cc1)O2` (configuration not stated), the T/C is, setting by setting: (dose: 100.0 mg/kg/injection, schedule: Q01DX007 (ip), vehicle: other) 90 % of control; (dose: 200.0 mg/kg/injection, schedule: Q01DX007 (ip), vehicle: other) 71 % of control.
`CC(N)C(=O)NC1(C(=O)O)CCCC1` (configuration not stated): the T/C runs as follows: (dose: 7.5 mg/kg/injection, schedule: Q#A X014 (ip), vehicle: carboxymethylcellulose (CMC)) 75 % of control; (dose: 15.0 mg/kg/injection, schedule: Q#A X014 (ip), vehicle: carboxymethylcellulose (CMC)) 56 % of control; (dose: 30.0 mg/kg/injection, schedule: Q#A X014 (ip), vehicle: carboxymethylcellulose (CMC)) 62 % of control; (dose: 60.0 mg/kg/injection, schedule: Q#A X014 (ip), vehicle: carboxymethylcellulose (CMC)) 46 % of control.
In the case of `O=C(O)C(=O)c1ccc(-c2ccccc2)cc1`, the T/C is 83 % of control (dose: 4.0 mg/kg/injection, schedule: Q01DX007 (ip), vehicle: carboxymethylcellulose (CMC)); 106 % of control (dose: 8.0 mg/kg/injection, schedule: Q01DX007 (ip), vehicle: carboxymethylcellulose (CMC)); 71 % of control (dose: 16.0 mg/kg/injection, schedule: Q01DX007 (ip), vehicle: carboxymethylcellulose (CMC)); 80 % of control (dose: 32.0 mg/kg/injection, schedule: Q01DX007 (ip), vehicle: carboxymethylcellulose (CMC)).
Consider `Clc1ccc2c(Cl)ncnc2c1`, for which the T/C by setting is: (dose: 22.0 mg/kg/injection, schedule: Q#A X014 (ip), vehicle: methylcellulose (MC)) 58 % of control and 64 % of control; (dose: 22.5 mg/kg/injection, schedule: Q#A X014 (ip), vehicle: methylcellulose (MC)) 80 % of control; (dose: 33.0 mg/kg/injection, schedule: Q#A X014 (ip), vehicle: methylcellulose (MC)) 57 % of control and 65 % of control; (dose: 33.5 mg/kg/injection, schedule: Q#A X014 (ip), vehicle: methylcellulose (MC)) 51 % of control; (dose: 50.0 mg/kg/injection, schedule: Q#A X014 (ip), vehicle: methylcellulose (MC)) 42 % of control and 48 % of control and 64 % of control; (dose: 75.0 mg/kg/injection, schedule: Q#A X014 (ip), vehicle: methylcellulose (MC)) 21 % of control.
As to `CC1=CC(O)C(O)C2(C)C1CC1OC(=O)C(O)C3C(C)C(O)C4(O)OCC13C42` (configuration not stated), the T/C is, setting by setting: (dose: 5.0 mg/kg/injection, schedule: Q01DX007 (sc), vehicle: olive oil, sesame oil, peanut oil) 90 % of control; (dose: 10.0 mg/kg/injection, schedule: Q01DX007 (sc), vehicle: olive oil, sesame oil, peanut oil) 64 % of control; (dose: 20.0 mg/kg/injection, schedule: Q01DX007 (sc), vehicle: olive oil, sesame oil, peanut oil) 96 % of control; (dose: 40.0 mg/kg/injection, schedule: Q01DX007 (sc), vehicle: olive oil, sesame oil, peanut oil) 85 % of control and 86 % of control; (dose: 135.0 mg/kg/injection, schedule: Q01DX007 (sc), vehicle: olive oil, sesame oil, peanut oil) 83 % of control.
